According to ChEMBL document CHEMBL1201862, “PubChem BioAssay data set” (2004):
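In this assay, cells in 96-well plates receive the compound at five concentrations for 48 hours. Endpoints are linearly interpolated between the surrounding concentrations. GI50 is the concentration that inhibits growth by half.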 The source made the active and inactive calls. Rule as the data show it: active = GI50 up to about 1.1 µM and inactive = higher.

Key:
Assay in all cases: NCI anticancer screen, dose series, 48 h
786-0 = test system: 786-0
A498 = test system: A498
A549 = test system: A549
ACHN = test system: ACHN
BT-549 = test system: BT-549
CAKI-1 = test system: CAKI-1
CCRF-CEM = test system: CCRF-CEM
COLO 205 = test system: COLO 205
DU-145 = test system: DU-145
EKVX = test system: EKVX
HCC 2998 = test system: HCC 2998
HCT-116 = test system: HCT-116
HCT-15 = test system: HCT-15
HL-60 = test system: HL-60
HOP-62 = test system: HOP-62
HOP-92 = test system: HOP-92
HT-29 = test system: HT-29
Hs-578T = test system: Hs-578T
IGROV-1 = test system: IGROV-1
K562 = test system: K562
KM12 = test system: KM12
LOX IMVI = test system: LOX IMVI
M14 = test system: M14
MCF7 = test system: MCF7
MDA-MB-231 = test system: MDA-MB-231
MDA-MB-435 = test system: MDA-MB-435
MDA-N = test system: MDA-N
MOLT-4 = test system: MOLT-4
Malme-3M = test system: Malme-3M
NCI-H226 = test system: NCI-H226
NCI-H23 = test system: NCI-H23
NCI-H460 = test system: NCI-H460
NCI-H522 = test system: NCI-H522
NCI/ADR-RES = test system: NCI/ADR-RES
OVCAR-3 = test system: OVCAR-3
OVCAR-4 = test system: OVCAR-4
OVCAR-5 = test system: OVCAR-5
OVCAR-8 = test system: OVCAR-8
PC-3 = test system: PC-3
RXF 393 = test system: RXF 393
SF-268 = test system: SF-268
SF-295 = test system: SF-295
SF-539 = test system: SF-539
SK-MEL-28 = test system: SK-MEL-28
SK-MEL-5 = test system: SK-MEL-5
SK-OV-3 = test system: SK-OV-3
SN12C = test system: SN12C
SNB-19 = test system: SNB-19
SNB-75 = test system: SNB-75
SW-620 = test system: SW-620
T47D = test system: T47D
TK-10 = test system: TK-10
U-251 = test system: U-251
UACC-257 = test system: UACC-257
UACC-62 = test system: UACC-62
UO-31 = test system: UO-31
RPMI-8226 = test system: RPMI-8226
SK-MEL-2 = test system: SK-MEL-2
SR = test system: SR

`Cc1nc(N(C(C)C)C(C)C)c(C(C)C)o1` was tested, and the GI50 (786-0) was > 100 µM (inactive), the GI50 (A498) was > 100 µM (inactive) and the GI50 (A549) was > 100 µM (inactive). The GI50 (ACHN) was > 100 µM (inactive), the GI50 (BT-549) was > 100 µM (inactive) and the GI50 (CAKI-1) was > 100 µM (inactive). For the same compound, the GI50 (CCRF-CEM) was > 100 µM (inactive), the GI50 (COLO 205) was > 100 µM (inactive) and the GI50 (DU-145) was > 100 µM (inactive). The GI50 (EKVX) was > 100 µM (inactive), the GI50 (HCC 2998) was > 100 µM (inactive) and the GI50 (HCT-116) was > 100 µM (inactive). For the same compound, the GI50 (HCT-15) was over 100 µM, the GI50 (HL-60) was > 100 µM (inactive) and the GI50 (HOP-62) was > 100 µM (inactive). The GI50 (HOP-92) was > 100 µM (inactive), the GI50 (HT-29) was > 100 µM (inactive) and the GI50 (Hs-578T) was > 100 µM (inactive). The GI50 (IGROV-1) was > 100 µM (inactive), the GI50 (K562) was > 100 µM (inactive) and the GI50 (KM12) was > 100 µM (inactive). For the same compound, the GI50 (LOX IMVI) was > 100 µM (inactive), the GI50 (M14) was > 100 µM (inactive) and the GI50 (MCF7) was > 100 µM (inactive). The GI50 (MDA-MB-231) was > 100 µM (inactive), the GI50 (MDA-MB-435) was > 100 µM (inactive) and the GI50 (MDA-N) was > 100 µM (inactive). The GI50 (MOLT-4) was > 100 µM (inactive), the GI50 (Malme-3M) was > 100 µM (inactive) and the GI50 (NCI-H226) was > 100 µM (inactive). The GI50 (NCI-H23) was > 100 µM (inactive), the GI50 (NCI-H460) was > 100 µM (inactive) and the GI50 (NCI-H522) was > 100 µM (inactive). For the same compound, the GI50 (NCI/ADR-RES) was > 100 µM (inactive), the GI50 (OVCAR-3) was > 100 µM (inactive) and the GI50 (OVCAR-4) was > 100 µM (inactive). The GI50 (OVCAR-5) was > 100 µM (inactive), the GI50 (OVCAR-8) was > 100 µM (inactive) and the GI50 (PC-3) was > 100 µM (inactive). For the same compound, the GI50 (RXF 393) was > 100 µM (inactive), the GI50 (SF-268) was > 100 µM (inactive) and the GI50 (SF-295) was > 100 µM (inactive). The GI50 (SF-539) was > 100 µM (inactive), the GI50 (SK-MEL-28) was > 100 µM (inactive) and the GI50 (SK-MEL-5) was > 100 µM (inactive). The GI50 (SK-OV-3) was > 100 µM (inactive), the GI50 (SN12C) was > 100 µM (inactive) and the GI50 (SNB-19) was > 100 µM (inactive). For the same compound, the GI50 (SNB-75) was > 100 µM (inactive), the GI50 (SW-620) was > 100 µM (inactive) and the GI50 (T47D) was > 100 µM (inactive). The GI50 (TK-10) was > 100 µM (inactive), the GI50 (U-251) was > 100 µM (inactive) and the GI50 (UACC-257) was > 100 µM (inactive). The GI50 (UACC-62) was > 100 µM (inactive) and the GI50 (UO-31) was > 100 µM (inactive).

For `O=c1[nH]c2nc3ccccc3c(=O)n2/c1=C/c1ccc(Cl)cc1`, the GI50 (786-0) was 24.2 µM (inactive), the GI50 (A549) was > 100 µM (inactive) and the GI50 (ACHN) was 65.3 µM (inactive). For the same compound, the GI50 (BT-549) was 16.9 µM (inactive), the GI50 (CAKI-1) was > 100 µM (inactive) and the GI50 (CCRF-CEM) was 37 µM (inactive). For the same compound, the GI50 (COLO 205) was 38.5 µM (inactive), the GI50 (DU-145) was 33.3 µM (inactive) and the GI50 (HCC 2998) was 21.7 µM (inactive). The GI50 (HCT-116) was 36 µM (inactive), the GI50 (HCT-15) was 27.2 µM and the GI50 (HL-60) was 48.8 µM (inactive). For the same compound, the GI50 (HOP-62) was 53.7 µM (inactive), the GI50 (HOP-92) was 27.4 µM (inactive) and the GI50 (Hs-578T) was 20.8 µM (inactive). The GI50 (KM12) was 18.4 µM (inactive), the GI50 (LOX IMVI) was 30.4 µM (inactive) and the GI50 (M14) was 36.9 µM (inactive). For the same compound, the GI50 (MCF7) was 50.1 µM (inactive), the GI50 (MDA-MB-231) was 58.1 µM (inactive) and the GI50 (MDA-MB-435) was 21.7 µM (inactive). The GI50 (MDA-N) was 22.2 µM (inactive), the GI50 (MOLT-4) was 51.6 µM (inactive) and the GI50 (Malme-3M) was 28.9 µM (inactive). For the same compound, the GI50 (NCI-H23) was 25.8 µM (inactive), the GI50 (NCI-H522) was 12.6 µM (inactive) and the GI50 (NCI/ADR-RES) was 26.2 µM (inactive). For the same compound, the GI50 (OVCAR-3) was 24.3 µM (inactive), the GI50 (OVCAR-4) was > 100 µM (inactive) and the GI50 (OVCAR-5) was 63.5 µM (inactive). For the same compound, the GI50 (OVCAR-8) was 16.1 µM (inactive), the GI50 (PC-3) was > 100 µM (inactive) and the GI50 (RPMI-8226) was 82.8 µM (inactive). For the same compound, the GI50 (RXF 393) was 46.5 µM (inactive), the GI50 (SF-268) was 26.9 µM (inactive) and the GI50 (SF-295) was 54.6 µM (inactive). The GI50 (SF-539) was 21.7 µM (inactive), the GI50 (SK-MEL-28) was 23.5 µM (inactive) and the GI50 (SK-MEL-2) was > 100 µM (inactive). For the same compound, the GI50 (SK-OV-3) was > 100 µM (inactive), the GI50 (SN12C) was 26.8 µM (inactive) and the GI50 (SNB-19) was 23.4 µM (inactive). The GI50 (SR) was > 100 µM (inactive), the GI50 (SW-620) was 17.9 µM (inactive) and the GI50 (T47D) was 36.2 µM (inactive). For the same compound, the GI50 (TK-10) was 58.5 µM (inactive), the GI50 (U-251) was 28.2 µM (inactive) and the GI50 (UACC-257) was 30.7 µM (inactive). The GI50 (UACC-62) was 33.3 µM (inactive) and the GI50 (UO-31) was 67.6 µM (inactive).

For `N#Cc1ccc(-c2nc(C#N)c(N)o2)cc1`, the GI50 (786-0) was > 10 µM (inactive), the GI50 (A549) was > 10 µM (inactive) and the GI50 (ACHN) was > 10 µM (inactive). The GI50 (BT-549) was > 10 µM (inactive), the GI50 (CAKI-1) was > 10 µM (inactive) and the GI50 (CCRF-CEM) was > 10 µM (inactive). For the same compound, the GI50 (COLO 205) was > 10 µM (inactive), the GI50 (DU-145) was > 10 µM (inactive) and the GI50 (EKVX) was > 10 µM (inactive). The GI50 (HCC 2998) was > 10 µM (inactive), the GI50 (HCT-116) was > 10 µM (inactive) and the GI50 (HCT-15) was over 10 µM. For the same compound, the GI50 (HL-60) was > 10 µM (inactive), the GI50 (HOP-62) was > 10 µM (inactive) and the GI50 (HOP-92) was > 10 µM (inactive). For the same compound, the GI50 (HT-29) was > 10 µM (inactive), the GI50 (Hs-578T) was > 10 µM (inactive) and the GI50 (IGROV-1) was > 10 µM (inactive). The GI50 (K562) was > 10 µM (inactive), the GI50 (KM12) was > 10 µM (inactive) and the GI50 (LOX IMVI) was > 10 µM (inactive). The GI50 (M14) was > 10 µM (inactive), the GI50 (MCF7) was > 10 µM (inactive) and the GI50 (MDA-MB-231) was > 10 µM (inactive). For the same compound, the GI50 (MDA-MB-435) was > 10 µM (inactive), the GI50 (MDA-N) was > 10 µM (inactive) and the GI50 (MOLT-4) was > 10 µM (inactive). For the same compound, the GI50 (Malme-3M) was > 10 µM (inactive), the GI50 (NCI-H226) was > 10 µM (inactive) and the GI50 (NCI-H23) was > 10 µM (inactive). The GI50 (NCI-H460) was > 10 µM (inactive), the GI50 (NCI-H522) was > 10 µM (inactive) and the GI50 (NCI/ADR-RES) was > 10 µM (inactive). The GI50 (OVCAR-4) was > 10 µM (inactive), the GI50 (OVCAR-8) was > 10 µM (inactive) and the GI50 (PC-3) was > 10 µM (inactive). The GI50 (RPMI-8226) was > 10 µM (inactive), the GI50 (RXF 393) was > 10 µM (inactive) and the GI50 (SF-268) was > 10 µM (inactive). The GI50 (SF-295) was > 10 µM (inactive), the GI50 (SF-539) was > 10 µM (inactive) and the GI50 (SK-MEL-28) was > 10 µM (inactive). For the same compound, the GI50 (SK-MEL-5) was > 10 µM (inactive), the GI50 (SK-OV-3) was > 10 µM (inactive) and the GI50 (SN12C) was > 10 µM (inactive). For the same compound, the GI50 (SNB-19) was > 10 µM (inactive), the GI50 (SNB-75) was > 10 µM (inactive) and the GI50 (SR) was > 10 µM (inactive). For the same compound, the GI50 (SW-620) was > 10 µM (inactive), the GI50 (T47D) was > 10 µM (inactive) and the GI50 (TK-10) was > 10 µM (inactive). The GI50 (UACC-257) was > 10 µM (inactive), the GI50 (UACC-62) was > 10 µM (inactive) and the GI50 (UO-31) was > 10 µM (inactive).
